The values that follow are results of earlier work, collected in patent US9554998B1, “Composition of analgesic bioadhesive healing microspheres” (priority 2015, dated 2017).

For data set [1] the following is noted: applied for 30 minutes to the forearms of healthy volunteers.
For data set [2] the following is noted: single patient.

With `FC(F)(F)C(Cl)Br` (centres unmarked) [halothane], the local analgesic effect result in data set [1] was “slight local analgesic effect”.

Turning to `FC(F)OC(Cl)C(F)(F)F` (centres unmarked) [isoflurane], in data set [1], the local analgesic effect result is on record as “slight local analgesic effect”. In the case of `FCOC(C(F)(F)F)C(F)(F)F` [sevoflurane, fluoromethyl 2.2.2-trifluoro-1-(trifluoromethyl)ethyl ether], the local analgesic effect result in data set [1] was “slight local analgesic effect”. The analgesic control result in data set [2] (liquid sevoflurane directly on to the ulcer bed) is “immediate, intense and long-lasting analgesia”. For the same compound, the “time the ulcer took to heal” value in data set [2] (liquid sevoflurane on the ulcer bed) was 16 days.
